The record followed here is patent US11058114B2, “Use of n-arylamidine-substituted trifluoroethyl sulphoxide derivatives for controlling pests by watering, droplet application, dip application, soil injection or by treating seed” (BAYER CROPSCIENCE AKTIENGESELLSCHAFT, priority 2014, dated 2021).

The test system of assay [1] is greenhouse red spider mite (Tetranychus urticae), OP-resistant. Kind of assay: Tetranychus urticae drench test, OP-resistant (TETRUR DRENCH). Format: in vivo. As to conditions: bean plants (Phaseolus vulgaris) in soil pots, 100% = all spider mites killed; for pest or weed control at 0.8 ppm / pest or weed control at 4 ppm / pest or weed control at 0.16 ppm: Tetranychus urticae, in Phaseolus vulgaris, soil, 336 h, 14 d, read-out: % effect after 14 d. Here is the method: Tetranychus urticae—Drench Test, OP-Resistant (TETRUR)
(§1) Solvent: 7 parts by weight of dimethylformamide
Emulsifier: 2 parts by weight of alkylaryl polyglycol ether
To produce a suitable active compound preparation, 1 part by weight of active compound was mixed with the specified amounts of solvent and emulsifier, and the concentrate was diluted with water to the desired concentration, with the volume of soil which was drenched being taken into account. It was ensured that a concentration of 40 ppm of emulsifier in the soil was not exceeded. To produce further test concentrations, water was used for dilution.
Bean plants (Phaseolus vulgaris), in soil pots, which were heavily infested by all stages of the greenhouse red spider mite (Tetranychus urticae) were watered with an active compound preparation of the desired concentration.
(§2) After the desired period of time, the efficacy in % was determined. 100% means that all the spider mites have been killed; 0% means that no spider mites have been killed.

Assay [2] shares this test system. Kind of assay: Tetranychus urticae spray test, OP-resistant (TETRUR SPRAY). Format: in vivo. The following applies: bean plants (Phaseolus vulgaris), 100% = all spider mites killed; for pest or weed control at 0.8 ppm / pest or weed control at 4 ppm / pest or weed control at 0.16 ppm: Tetranychus urticae, 336 h, 14 d, read-out: % effect after 14 d. Here is the method: Tetranychus urticae—Spray Test; OP-Resistant (TETRUR)
as §1
Emulsifier: alkylaryl polyglycol ether
To produce a suitable active compound preparation, 1 part by weight of active compound was dissolved using the stated parts by weight of solvent and made up with water containing an emulsifier concentration of 1000 ppm until the desired concentration was attained. To produce further test concentrations, the preparation was diluted with emulsifier-containing water. Ammonium salts and penetrants (rapeseed oil methyl ester) were each added in a concentration of 1000 ppm to the solution of the preparations.
Bean plants (Phaseolus vulgaris) which were heavily infested by all stages of the greenhouse red spider mite (Tetranychus urticae) were sprayed with an active compound preparation of the desired concentration.
as §2

As for `Cc1cc(F)c(/N=C(\N(C)C)C(F)(F)F)cc1[S+]([O-])CC(F)(F)F` (centres unmarked) [Ib-01], the pest or weed control at 0.8 ppm in assay [1] amounted to 100%; in assay [2], 0%. Also, the pest or weed control at 4 ppm in assay [1] turned out to be 100%; in assay [2] it was 98%.

For `Cc1cc(F)c(/N=C(\N)C(F)(F)F)cc1[S+]([O-])CC(F)(F)F` (centres unmarked) [Ib-11], in assay [1], the pest or weed control at 0.8 ppm stood at 100% and the pest or weed control at 4 ppm worked out at 100%. For the same compound, in assay [2], the pest or weed control at 0.8 ppm came out at 50% and the pest or weed control at 4 ppm came out at 95%.

Take `N/C(=N/c1cc([S+]([O-])CC(F)(F)F)c(Cl)cc1Cl)C(F)(F)F` (centres unmarked) [Ib-14]: the “% effect after 14 d” value in assay [1] (0.16 ppm) amounted to 80%; in assay [2] (0.16 ppm) it was 0%.

As for `N/C(=N/c1ccc(C(F)(F)F)c([S+]([O-])CC(F)(F)F)c1)C(F)(F)F` (centres unmarked) [Ib-16], the pest or weed control at 0.16 ppm amounted to 99% in assay [1] (0.16 ppm) and 0% in assay [2] (0.16 ppm). Further, the pest or weed control at 0.8 ppm came out at 100% in assay [1] and 40% in assay [2].

On to `N/C(=N/c1cc([S+]([O-])CC(F)(F)F)c(Cl)cc1Cl)C(F)(F)F` (centres unmarked) [Ib-17], for which the figures for the pest or weed control at 0.16 ppm in assay [1] (0.16 ppm) and in assay [2] (0.16 ppm) were 98% and 0%, respectively. Also, the pest or weed control at 0.8 ppm in assay [1] came out at 100%; in assay [2], 98%.

Take `N/C(=N/c1cc([S+]([O-])CC(F)(F)F)c(Br)cc1Br)C(F)(F)F` (centres unmarked) [Ib-18]: the pest or weed control at 0.16 ppm in assay [1] (0.16 ppm) is 99%; in assay [2] (0.16 ppm), 0%. For the same compound, the pest or weed control at 0.8 ppm was 99% in assay [1] and 50% in assay [2].

With `Cc1cc(F)c(/N=C(\N)C2(F)CC2)cc1[S+]([O-])CC(F)(F)F` (centres unmarked) [Ib-19], the pest or weed control at 0.16 ppm in assay [1] (0.16 ppm) turned out to be 98%; in assay [2] (0.16 ppm), 0%. In addition, the pest or weed control at 0.8 ppm was found to be 98% in assay [1] and 30% in assay [2].

As for `CN/C(=N/c1cc([S+]([O-])CC(F)(F)F)c(Cl)cc1Cl)C(F)(F)F` (centres unmarked) [Ib-21], the pest or weed control at 0.16 ppm in assay [1] (0.16 ppm) came out at 80%; in assay [2] (0.16 ppm) it was 0%. The results for the pest or weed control at 0.8 ppm in assay [1] and in assay [2] were 95% and 90%, respectively.

For `Cc1cc(F)c(/N=C(\N)C2(Cl)CC2)cc1[S+]([O-])CC(F)(F)F` (centres unmarked) [Ib-22], in assay [1], the pest or weed control at 0.8 ppm is 90% and the pest or weed control at 4 ppm came out at 90%. Also, in assay [2], the pest or weed control at 0.8 ppm was 0% and the pest or weed control at 4 ppm came out at 30%.

As for `CN/C(=N/c1cc([S+]([O-])CC(F)(F)F)c(Br)cc1Br)C(F)(F)F` (centres unmarked) [Ib-24], the pest or weed control at 0.8 ppm in assay [1] amounted to 100%; in assay [2] it was 30%.

As for `CN(C)/C(=N/c1cc([S+]([O-])CC(F)(F)F)c(Br)cc1Br)C(F)(F)F` (centres unmarked) [Ib-25], the pest or weed control at 0.8 ppm in assay [1] stood at 99%; in assay [2], 50%.

For `CN(C)/C(=N/c1cc([S+]([O-])CC(F)(F)F)c(Cl)cc1Cl)C(F)(F)F` (centres unmarked) [Ib-26], the results for the pest or weed control at 0.8 ppm in assay [1] and in assay [2] were 95% and 0%, respectively.

On to `Cc1cc(F)c(/N=C2\CCCN2CC(F)F)cc1[S+]([O-])CC(F)(F)F` (centres unmarked) [Ib-33], for which the pest or weed control at 0.16 ppm in assay [1] (0.16 ppm) was found to be 60%; in assay [2] (0.16 ppm), 0%. The pest or weed control at 0.8 ppm in assay [1] came out at 95%; in assay [2], 0%.

On to `N/C(=N/c1cc([S+]([O-])CC(F)(F)F)c(Cl)cc1Br)C(F)(F)F` (centres unmarked) [Ib-57], for which the pest or weed control at 0.16 ppm in assay [1] (0.16 ppm) is 90%; in assay [2] (0.16 ppm) it was 0%.

In the case of `Cc1cc(F)c(/N=C(\N)c2cnccn2)cc1[S+]([O-])CC(F)(F)F` (centres unmarked) [Ib-62], in assay [1], the pest or weed control at 0.8 ppm amounted to 90% and the pest or weed control at 4 ppm amounted to 90%. In addition, in assay [2], the pest or weed control at 0.8 ppm was found to be 0% and the pest or weed control at 4 ppm worked out at 0%.

Take `N/C(=N/c1cc([S+]([O-])CC(F)(F)F)c(Br)cc1Cl)C(F)(F)F` (centres unmarked) [Ib-68]: the figures for the pest or weed control at 0.16 ppm in assay [1] (0.16 ppm) and in assay [2] (0.16 ppm) were 98% and 0%, respectively. Besides, the pest or weed control at 0.8 ppm worked out at 100% in assay [1] and 80% in assay [2].

As for `Cc1cc(F)c(/N=C2\CCCN2CC(F)(F)F)cc1[S+]([O-])CC(F)(F)F` (centres unmarked) [Ib-115], in assay [1], the pest or weed control at 0.8 ppm stood at 90% and the pest or weed control at 4 ppm is 90%. Besides, in assay [2], the pest or weed control at 0.8 ppm was 0% and the pest or weed control at 4 ppm came out at 0%.

As for `Cc1cc(F)c(/N=C2\SCC(=O)N2CC(F)(F)F)cc1[S@+]([O-])CC(F)(F)F` [Ib-168], the values for the pest or weed control at 0.16 ppm in assay [1] (0.16 ppm) and in assay [2] (0.16 ppm) were 50% and 0%, respectively. The results for the pest or weed control at 0.8 ppm in assay [1] and in assay [2] were 95% and 30%, respectively.
